Source: US4301313A, “Halogenated ethynyl biphenyls” (Eli-Lilly and Company, priority 1974, dated 1981)

How the values were obtained:
[1] = carrageenin-induced hind paw inflammation; format: in vivo; settings: Rattus norvegicus
Description: Representative compounds were also evaluated for anti-inflammatory activity in the test method described by C. A. Winter at 111 Proc. Soc. Exp. Biol. Med., 544 (1962). In this method, inflammation is created by injecting carrageenin into the hind paw of rats. Test compounds are administered prior to injection to determine percent inhibition of the subsequent inflammation, in comparison with control animals.

[2] = ultraviolet-induced erythema blocking test, oral (modified Winder method); format: in vivo, guinea pig (male albino); settings: Cavia porcellus, guinea pig, weighted scores 1.0-2.5 h after UV, dose which provides 50% inhibition
Description: The compounds of the present invention were evaluated for anti-inflammatoryactivity by the ultraviolet-induced erythema blocking test. The test procedures were a modification of the Winder method (Winder, C. V.; Wax, J.; Burr, V.; Been, M.; and Posiere, C. E.: A Study of Pharmacological Influences on Ultraviolet Erythema in Guinea Pigs. Arch. Int. Pharmacodyn. 116: 261, 1958). Male albino guinea pigs weighing 240-300 gm. were used. The hair on the back was clipped and chemically depilated 15-18 hours before each experiment. The animals were fasted overnight, and on the day of the experiment, were randomized and placed in clear plastic partitioned holders 10×20 cm. wide and 15 cm. high.
The compounds to be tested were suspended in 1% methyl cellulose in water, utilizing a tissue homogenizer. The suspensions were administered orally in a volume of 2.0 ml./kg. of body weight. Control animals received an equal amount of the vehicle.
The source of ultraviolet light was a Hanovia lamp (Kromayer-Model 10). A notebook reinforcement ring was placed upon the lens of the lamp to provide an area of contrast for grading purposes. The lens was then placed in contact with the skin of the guinea pig's back. Exposure time to UV was for a period of 4 seconds. Beginning one hour after exposure and thereafter at half-hour intervals for another 11/2 hours, the degree of resulting erythema was graded by an arbitrary scoring system based upon the degree of contrast and redness formed. Anti-inflammatory agents delay the development of the erythema and have their greatest effect at the initial grading periods. The scores were, therefore, weighted by factors of 4, 3, 2, and 1 at the 1.0, 1.5, 2.0, and 2.5 hour scoring times, respectively. The erythema was graded as follows:
Total scores from each treatment group of four guinea pigs were compared to the scores of the control group. The percent inhibition was calculated as follows: [formula] In the case of compounds showing inhibition, retesting was carried out at a plurality of doses to enable calculation of an ED50 for each such compound. "ED50 " designates that dose which provides 50% inhibition. Calculation of the ED50 was either by a standard linear regression method or by estimation from a dose-response curve of three or more points. The compounds so tested and their ED50 s were as follows: […]

[3] = analgesic activity, acetic acid-induced writhing; format: in vivo, mouse (albino male); settings: mouse, p.o., dose reducing writhing frequency by 50%; 30, 90, 180 minutes after administration
Description: Representative compounds were also evaluated for analgesic activity. The evaluation was conducted by using acetic acid-induced writhing in mice as the pain model. Clinically effective analgesis are effective when tested in this model: see Koster et al., "Acetic Acid for Analgesic Screening," 18 Fed. Proc. 412 (1959).
In a method similar to that reported by Koster et al., standard strain albino male mice weighing 20-22 grams were fasted overnight. The respective compound or vehicle (as control) was administered by gastric lavage (p.o.). Each compound was administered in an aqueous suspension of 1% methylcellulose in water. […] At 30, 90, and 180 minutes after administration, writhing was induced by the intraperitoneal administration of 55 mg./kg. of acetic acid (0.55%). Each treatment group consisted of 5 mice and separate groups were examined at each observation time. The total number of writhes for the treatment group were counted in a 10-minute observation period starting 5 minutes after the acetic acid administration. The treatment totals were compared to controls and a percent inhibition calculated as follows: [formula] […] An ED50, which represented the dose that would reduce the writhing frequency by 50%, was estimated from a dose-reponse curve of three or more points. A dose range was reported if only two points were availale for the dose response curve and they bracketed the 50% level. If data was available at 100 mg./kg., only, then the estimated ED50 was reported simply as less than 100 (<100).

[4] = adjuvant-induced arthritis test (paw volume); format: in vivo, rat (male albino); settings: rat, oral

| Compound | inhibition in vivo at 10 mg/kg [1] [%] | ED50 [2] [mg/kg] | Estimated ED50 [3] [mg/kg] | inhibition in vivo at 50 mg/kg [1] [%] | other results |
| --- | --- | --- | --- | --- | --- |
| C#Cc1ccc(Oc2ccccc2F)cc1 [(4-(2-fluorophenoxy)phenyl)acetylene, (4-(2-Fluorophenoxy)phenyl)acetylene] | 45 | 16.5 | < 100 |  | inhibition in vivo at 3 mg/kg [1]: 28%; inhibition in vivo at 30 mg/kg [1]: 68% |
| C#Cc1ccc(-c2ccccc2)c(Cl)c1 [(3-chloro-4-phenylphenyl)acetylene, (3-Chloro-4-phenylphenyl)acetylene] | 62 | 0.033 | 30 |  | Percent Inhibition of Volume Increase, Day 7 ([4]; dose 0.1 (unit not given)): 21%; Percent Inhibition of Volume Increase, Day 14 ([4]; dose 0.1 (unit not given)): 36%; Percent Inhibition of Volume Increase, Day 7 ([4]; dose 0.3 (unit not given)): 56%; Percent Inhibition of Volume Increase, Day 14 ([4]; dose 0.3 (unit not given)): 50%; Percent Inhibition of Volume Increase, Day 7 ([4]; dose 1 (unit not given)): 34%; Percent Inhibition of Volume Increase, Day 14 ([4]; dose 1 (unit not given)): 41%; Percent Inhibition of Volume Increase, Day 7 ([4]; dose 3 (unit not given)): 30%; Percent Inhibition of Volume Increase, Day 14 ([4]; dose 3 (unit not given)): 45%; inhibition in vivo at 0.3 mg/kg ([1]; 0.3 mg./kg.): 23%; inhibition in vivo at 3 mg/kg [1]: 41% |
| C#Cc1ccc(Oc2ccccc2)c(C)c1 [(3-methyl-4-phenoxyphenyl)acetylene, (3-Methyl-4-phenoxyphenyl)acetylene] | 16 | 10 | < 100 |  |  |
| C#Cc1ccc(-c2cc(F)ccc2F)cc1 [(4-(2,5-difluorophenyl)phenyl)acetylene, (4-(2,5-Difluorophenyl)phenyl)acetylene] |  | 4.4 | 10 |  | inhibition in vivo at 25 mg/kg [1]: 43% |
| C#Cc1ccc(-c2cccc(F)c2)cc1 [(4-(3-fluorophenyl)phenyl)acetylene, (4-(3-Fluorophenyl)phenyl)acetylene] | 17 | 3 | 35 |  |  |
| C#Cc1ccc(F)c(-c2ccccc2F)c1 [(4-Fluoro-3-(2-fluorophenyl)phenyl)acetylene] | 23 | 23 |  | 45 | inhibition in vivo at 3 mg/kg [1]: 13%; inhibition in vivo at 30 mg/kg [1]: 43% |
| C#Cc1ccc(-c2ccc(F)cc2F)cc1 [(4-(2,4-difluorophenyl)phenyl)acetylene, (4-(2,4-Difluorophenyl)phenyl)acetylene] |  | 4 | 4 |  | inhibition in vivo at 25 mg/kg [1]: 31% |
| C#Cc1ccc(-c2ccccc2)cc1OC [(2-methoxy-4-phenylphenyl)acetylene, (2-Methoxy-4-phenylphenyl)acetylene] | 7 | 39 |  | 51 | inhibition in vivo at 1 mg/kg ([1]; 1 mg./kg.): 25% |
| C#Cc1cccc(Oc2ccccc2)c1 [(3-phenoxyphenyl)acetylene, (3-Phenoxyphenyl)acetylene] | 7 | 13 | < 100 |  |  |
| C#Cc1cccc(-c2ccccc2)c1 [3-biphenylylacetylene, 3-Biphenylylacetylene] |  | 7 | 50 to 100 | 32 |  |
| C#Cc1ccc(OCCCC)cc1C [(2-methyl-4-n-butoxyphenyl)acetylene, (2-Methyl-4-n-butoxyphenyl)acetylene] |  | 35 |  |  | inhibition in vivo at 25 mg/kg [1]: 9% |
| C#Cc1ccc(Oc2ccccc2)cc1C [(2-methyl-4-phenoxyphenyl)acetylene, (2-Methyl-4-phenoxyphenyl)acetylene] |  | 8 | < 100 |  | inhibition in vivo at 25 mg/kg [1]: 33% |
| C#Cc1ccc(-c2c(F)cccc2F)cc1 [(4-(2,6-difluorophenyl)phenyl)acetylene, (4-(2,6-Difluorophenyl)phenyl)acetylene] | 34 | 12 | < 100 | 49 | inhibition in vivo at 3 mg/kg [1]: 7%; inhibition in vivo at 30 mg/kg [1]: 37% |
| C#Cc1ccc(C2CCCCC2)c(Cl)c1 [(3-chloro-4-cyclohexylphenyl)acetylene, (3-Chloro-4-cyclohexylphenyl)acetylene] |  | 1 | < 100 |  |  |
| C#Cc1cccc(Oc2ccccc2F)c1 [(3-(2-fluorophenoxy)phenyl)acetylene, (3-(2-Fluorophenoxy)phenyl)acetylene] |  | 12 |  | 32 |  |
| C#Cc1ccc(-c2ccccc2)cc1C [(2-methyl-4-phenylphenyl)acetylene] |  | 20 | 60 |  |  |
| C#Cc1ccc(-c2ccccc2)c(F)c1 [(3-fluoro-4-phenylphenyl)acetylene, (3-Fluoro-4-phenylphenyl)acetylene] |  | 0.5 | 10 |  |  |
| (2-(2,5-difluorophenyl)phenyl)acetylene |  |  |  |  | Percent Inhibition of Volume Increase, Day 7 ([4]; dose 25 (unit not given)): 38%; Percent Inhibition of Volume Increase, Day 14 ([4]; dose 25 (unit not given)): 15% |
| C#Cc1ccc(-c2ccccc2)c(C)c1 [(3-methyl-4-phenylphenyl)acetylene, (3-Methyl-4-phenylphenyl)acetylene] | 56 | 0.09 | 50 | 66 | inhibition in vivo at 3 mg/kg [1]: 37%; inhibition in vivo at 30 mg/kg [1]: 56% |
| C#Cc1ccc(-c2ccccc2Cl)cc1 [(4-(2-chlorophenyl)phenyl)acetylene, (4-(2-Chlorophenyl)phenyl)acetylene] |  | 0.8 | 20 to 100 | 52 |  |
| C#Cc1ccc(-c2ccccc2C)cc1 [(4-(o-tolyl)phenyl)acetylene, (4-(o-Tolyl)phenyl)acetylene] | 6 | 0.9 | 35 | 48 | inhibition in vivo at 3 mg/kg [1]: 16%; inhibition in vivo at 30 mg/kg [1]: 53% |
| C#Cc1cc(C)c(Oc2ccccc2)c(C)c1 [(3,5-dimethyl-4-phenoxyphenyl)acetylene, (3,5-Dimethyl-4-phenoxyphenyl)acetylene] |  | 11 | < 100 | 29 |  |
| C#Cc1ccc(-c2ccccc2)c(OC)c1 [(3-methoxy-4-phenylphenyl)acetylene, (3-Methoxy-4-phenylphenyl)acetylene] |  | 0.6 |  |  |  |
